Test results published in PubChem BioAssay AID248 (DTP/NCI, 2004).
Several values for one entry are separate records, joined by “and”; a condition that tells them apart may be missing. Identical values can stand only once. Inconclusive results and toxic doses are left out. Cut-off read from the data, not from the text of the source: active = T/C of 150% or more; inactive = T/C below 125%.

Tested on: L1210 leukemia ip in BDF1 mice, survival T/C
Assay: NCI In Vivo Anticancer Drug Screen. Data for tumor model L1210 Leukemia (intraperitoneal) in B6D2F1 (BDF1) mice
Conditions: endpoint: mean survival time, higher = longer survival
In short: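 Tumor cells were implanted, animals were treated, and survival was followed. The result divides the treated measurement by the vehicle-control measurement.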

[1] = dose: 100.0 mg/kg/injection, schedule: Q01DX001 (ip), vehicle: Klucel (hydroxypropylcellulose) (HPC)
[2] = dose: 200.0 mg/kg/injection, schedule: Q01DX001 (ip), vehicle: Klucel (hydroxypropylcellulose) (HPC)
[3] = dose: 400.0 mg/kg/injection, schedule: Q01DX001 (ip), vehicle: Klucel (hydroxypropylcellulose) (HPC)
[4] = dose: 100.0 mg/kg/injection, schedule: Q04DX003 (ip), vehicle: other
[5] = dose: 200.0 mg/kg/injection, schedule: Q04DX003 (ip), vehicle: other
[6] = dose: 400.0 mg/kg/injection, schedule: Q04DX003 (ip), vehicle: other
[7] = dose: 50.0 mg/kg/injection, schedule: Q01DX009 (ip), vehicle: saline with Tween-80
[8] = dose: 100.0 mg/kg/injection, schedule: Q01DX001 (ip), vehicle: saline
[9] = dose: 200.0 mg/kg/injection, schedule: Q01DX001 (ip), vehicle: saline
[10] = dose: 400.0 mg/kg/injection, schedule: Q01DX001 (ip), vehicle: saline
[11] = dose: 100.0 mg/kg/injection, schedule: Q04DX002 (ip), vehicle: Klucel (hydroxypropylcellulose) (HPC)
[12] = dose: 200.0 mg/kg/injection, schedule: Q04DX002 (ip), vehicle: Klucel (hydroxypropylcellulose) (HPC)
[13] = dose: 400.0 mg/kg/injection, schedule: Q04DX002 (ip), vehicle: Klucel (hydroxypropylcellulose) (HPC)
[14] = dose: 100.0 mg/kg/injection, schedule: Q04DX003 (ip), vehicle: saline with Tween-80
[15] = dose: 200.0 mg/kg/injection, schedule: Q04DX003 (ip), vehicle: saline with Tween-80
[16] = dose: 400.0 mg/kg/injection, schedule: Q04DX003 (ip), vehicle: saline with Tween-80
[17] = dose: 100.0 mg/kg/injection, schedule: Q04DX003 (ip), vehicle: saline
[18] = dose: 200.0 mg/kg/injection, schedule: Q04DX003 (ip), vehicle: saline
[19] = dose: 400.0 mg/kg/injection, schedule: Q04DX003 (ip), vehicle: saline

Measured: T/C

O=C(c1ccccc1)c1cc2ccccc2oc1=O
inactive: [1] 103 % of control | [2] 98 % of control | [3] 90 % of control

O=C(O)/C(=C/c1ccccc1)c1ccc2ccccc2c1Br
inactive: dose: 100.0 mg/kg/injection, schedule: Q01DX009 (ip), vehicle: Klucel (hydroxypropylcellulose) (HPC) 107 % of control | [4] 100 % of control | dose: 200.0 mg/kg/injection, schedule: Q01DX009 (ip), vehicle: Klucel (hydroxypropylcellulose) (HPC) 95 % of control | [5] 100 % of control | dose: 400.0 mg/kg/injection, schedule: Q01DX009 (ip), vehicle: Klucel (hydroxypropylcellulose) (HPC) 109 % of control | [6] 95 % of control

CNc1nc(Cl)nc2ccccc12
inactive: [7] 105 % of control | dose: 100.0 mg/kg/injection, schedule: Q01DX009 (ip), vehicle: saline with Tween-80 112 % of control | dose: 200.0 mg/kg/injection, schedule: Q01DX009 (ip), vehicle: saline with Tween-80 102 % of control

CCOC(=O)N(O)c1ccc(/C=C/c2ccccc2)cc1
inactive: dose: 100.0 mg/kg/injection, schedule: Q01DX001 (ip), vehicle: carboxymethylcellulose (CMC) 98 % of control | dose: 200.0 mg/kg/injection, schedule: Q01DX001 (ip), vehicle: carboxymethylcellulose (CMC) 93 % of control | dose: 400.0 mg/kg/injection, schedule: Q01DX001 (ip), vehicle: carboxymethylcellulose (CMC) 98 % of control

C/C=C/C[P+](CC)(c1ccccc1)c1ccccc1
inactive: dose: 3.13 mg/kg/injection, schedule: Q01DX009 (ip), vehicle: saline 89 % of control

C(=N\Nc1ccc2ccccc2n1)/c1ccccn1
inactive: dose: 9.5 mg/kg/injection, schedule: Q01DX001 (ip), vehicle: other 94 % of control | dose: 19.0 mg/kg/injection, schedule: Q01DX001 (ip), vehicle: other 103 % of control | dose: 38.0 mg/kg/injection, schedule: Q01DX001 (ip), vehicle: other 94 % of control | dose: 75.0 mg/kg/injection, schedule: Q01DX001 (ip), vehicle: other 108 % of control

Clc1cc(Cl)c2nc(-c3ccc(Cl)c(Cl)c3)cc(C3CO3)c2c1 (stereo not drawn)
inactive: [8] 94 % of control | [9] 105 % of control | [10] 100 % of control

C=COC(=O)NC(CCC(=O)OC)C(=O)O (stereo not drawn)
inactive: [8] 92 % of control | [9] 101 % of control

O=[N+]([O-])c1cccc(-c2cc(-c3cccs3)cc(-c3ccccc3)n2)c1
inactive: dose: 100.0 mg/kg/injection, schedule: Q04DX002 (ip), vehicle: gum acacia 93 % of control | dose: 200.0 mg/kg/injection, schedule: Q04DX002 (ip), vehicle: gum acacia 93 % of control | dose: 400.0 mg/kg/injection, schedule: Q04DX002 (ip), vehicle: gum acacia 93 % of control

C1=CC2CCC1NO2 (stereo not drawn)
inactive: [8] 105 % of control | [9] 95 % of control | [10] 101 % of control

CC1CCCC(Oc2nc3c(c(=O)n(C)c(=O)n3C)n2C)C1 (stereo not drawn)
inactive: dose: 50.0 mg/kg/injection, schedule: Q01DX001 (ip), vehicle: other 93 % of control | dose: 100.0 mg/kg/injection, schedule: Q01DX001 (ip), vehicle: other 93 % of control | dose: 200.0 mg/kg/injection, schedule: Q01DX001 (ip), vehicle: other 88 % of control | dose: 400.0 mg/kg/injection, schedule: Q01DX001 (ip), vehicle: other 95 % of control

CONS(=O)c1ccc(Cl)cc1 (stereo not drawn)
inactive: [11] 96 % of control | [12] 92 % of control | [13] 108 % of control

CCCCCCCCCCCC[Si](c1ccccc1)(c1ccccc1)c1ccccc1
inactive: [4] 94 % of control | [5] 96 % of control | [6] 90 % of control

CC(=O)Nc1nc2oc(C)nc2c(=O)[nH]1
inactive: [1] 104 % of control | [2] 97 % of control | [3] 103 % of control

CC(=O)c1cc(F)ccc1O
inactive: [14] 102 % of control | [15] 97 % of control | [16] 94 % of control

CC1(C(=O)O)C2C=CC(C2)C1C(=O)O (stereo not drawn)
inactive: [17] 96 % of control | [18] 94 % of control | [19] 102 % of control

Nc1nc(N)c(CCCOc2ccccc2)c(N)n1
inactive: dose: 100.0 mg/kg/injection, schedule: Q04DX002 (ip), vehicle: saline 105 % of control | dose: 200.0 mg/kg/injection, schedule: Q04DX002 (ip), vehicle: saline 105 % of control

c1ccc2c(c1)ccc1[nH]c3ccccc3c12
inactive: [8] 120 % of control | [9] 96 % of control | [10] 93 % of control

COc1cc2c(cc1OC)-c1cc3cc(OC)c(OC)cc3c(C)[n+]1CC2 (tested in a mixture with another compound)
inactive: dose: 12.5 mg/kg/injection, schedule: Q04DX002 (ip), vehicle: Klucel (hydroxypropylcellulose) (HPC) 110 % of control | dose: 25.0 mg/kg/injection, schedule: Q01DX009 (ip), vehicle: saline with Tween-80 104 % of control | dose: 25.0 mg/kg/injection, schedule: Q04DX002 (ip), vehicle: Klucel (hydroxypropylcellulose) (HPC) 106 % of control | [7] 107 % of control | dose: 50.0 mg/kg/injection, schedule: Q04DX002 (ip), vehicle: Klucel (hydroxypropylcellulose) (HPC) 95 % of control

COc1cccc2ccccc12
inactive: [14] 96 % of control | [15] 94 % of control

O=C1C/C(=C\c2ccccc2O)C(=O)c2ccccc21
inactive: dose: 10.0 mg/kg/injection, schedule: Q04DX002 (ip), vehicle: Klucel (hydroxypropylcellulose) (HPC) 101 % of control | dose: 20.0 mg/kg/injection, schedule: Q04DX002 (ip), vehicle: Klucel (hydroxypropylcellulose) (HPC) 93 % of control | dose: 40.0 mg/kg/injection, schedule: Q04DX002 (ip), vehicle: Klucel (hydroxypropylcellulose) (HPC) 101 % of control

C(=C/c1ccccc1)/C=C/C(=C/c1ccccc1)c1ccccc1
inactive: [14] 91 % of control | [15] 87 % of control and 96 % of control | [16] 87 % of control and 91 % of control

O=C(Nc1ccccc1)/C(Cl)=C/O
inactive: [11] 91 % of control | [12] 94 % of control | [13] 97 % of control

CCCP(=S)(CCC)N(C)C
inactive: [14] 101 % of control | [15] 104 % of control

CCCNC(=O)C1C2CC3OC(=O)C1C3C2 (stereo not drawn)
inactive: [14] 90 % of control | [17] 98 % of control | [15] 95 % of control | [18] 91 % of control | [16] 93 % of control | [19] 102 % of control

C=C(Br)CNC(=O)OCC
inactive: dose: 50.0 mg/kg/injection, schedule: Q04DX003 (ip), vehicle: saline 96 % of control | [17] 115 % of control | [18] 107 % of control

Fc1c(F)c(F)c(S/C=C/c2ccccc2)c(F)c1F
inactive: [1] 96 % of control | [2] 118 % of control | [3] 105 % of control

CN(C)c1ccc(-c2cc[n+](C)cc2)cc1
inactive: dose: 3.13 mg/kg/injection, schedule: Q04DX003 (ip), vehicle: saline 101 % of control | dose: 6.25 mg/kg/injection, schedule: Q04DX003 (ip), vehicle: saline 101 % of control | dose: 12.5 mg/kg/injection, schedule: Q04DX003 (ip), vehicle: saline 104 % of control

Cc1cc(C(C)(C)C)c(SC(=O)N(C)C)c(C(C)(C)C)c1
inactive: [14] 97 % of control | [15] 95 % of control

CCCCCCC(C)OC(=O)CCl (stereo not drawn)
inactive: [14] 102 % of control | [15] 104 % of control | [16] 109 % of control
